Experimental data as given in ChEMBL document CHEMBL1126188, “Synthesis and anti-HIV activity of 4'-thio-2',3'-dideoxynucleosides” (J Med Chem, 1992).
In brackets after ≈: the same amount, converted by molar mass.

Experiments:
CCRF-CEM [1] = test: Minimum compound concentration that reduced cell viability by 25% for HIV replication in CEM cells.; type: functional, Homo sapiens
CCRF-CEM [2] = test: Compound was tested for its inhibitory activity against HIV replication in CEM cells.; type: functional, cell-based; conditions: Homo sapiens
CCRF-CEM [3] = test: Total viral index (TAI) is the area between the cytotoxicity and the antiviral activity curve for CEM cells.; type: functional, Homo sapiens
MT2 [4] = test: Compound was tested for its inhibitory activity against HIV replication in MT-2 cells.; type: functional, cell-based; conditions: Homo sapiens
MT2 [5] = test: Total viral index (TAI) is the area between the cytotoxicity and the antiviral activity curve for MT-2 cell line.; type: functional, Homo sapiens
MT2 [6] = test: Minimum compound concentration that reduced cell viability by 25% for HIV replication in MT-2 cells.; type: functional, Homo sapiens
[7] = Selectivity index is calculated by dividing the TC25(CEM) by ID50(CEM); type: functional
[8] = Selectivity index is calculated by dividing the TC25(MT2) by ID50(MT2); type: functional
CCRF-CEM [9] = test: Compound was tested for its inhibitory activity against HIV replication in CEM cells.; conditions: Homo sapiens
CCRF-CEM [10] = test: Minimum compound concentration that reduced cell viability by 25% for HIV replication in CEM cells.
CCRF-CEM [11] = test: Total viral index (TAI) is the area between the cytotoxicity and the antiviral activity curve for CEM cells.
CCRF-CEM [12] = test: Total viral index (TAI) is the area between the cytotoxicity and the antiviral activity curve for CEM cell line.; type: functional, Homo sapiens
MT2 [13] = test: Total viral index (TAI) is the area between the cytotoxicity and the antiviral activity curve for MT-2 cells.; type: functional, Homo sapiens

**Q.** With `Cc1cn([C@H]2C[C@H](N=[N+]=[N-])[C@@H](CO)O2)c(=O)[nH]c1=O` [ZIDOVUDINE] as the compound, how does the TC25 (CCRF-CEM [1]) read?
**A.** Its TC25 is >10 µg/mL.

**Q.** And the IC50 (CCRF-CEM [2])?
**A.** The IC50 was < 0.03 µg/mL.

**Q.** What about the TAI (CCRF-CEM [3]) of the same compound?
**A.** The TAI was >93.

**Q.** And the IC50 (MT2 [4])?
**A.** Its IC50 is 0.14 µg/mL (≈ 0.524 µM).

**Q.** And the TAI (MT2 [5])?
**A.** Its TAI is >82.

**Q.** What about the TC25 (MT2 [6]) of the same compound?
**A.** Its TC25 is 9.3 µg/mL (≈ 34.8 µM).

**Q.** What about the Selectivity index [7] of the same compound?
**A.** Its Selectivity index is > 300.

**Q.** And the Selectivity index [8]?
**A.** Its Selectivity index is > 160.

**Q.** Which results are given for `Nc1nc(N)c2ncn(C3CC[C@@H](CO)S3)c2n1` (some centres not stated)?
**A.** Selectivity index [7]: 2.6; IC50 (CCRF-CEM [9]): 37 µg/mL (≈ 139 µM); TC25 (CCRF-CEM [10]): 97 µg/mL (≈ 364 µM); TAI (CCRF-CEM [11]): 21

**Q.** With `Nc1ccn([C@H]2CC[C@@H](CO)O2)c(=O)n1` [ZALCITABINE] as the compound, how does the TC25 (CCRF-CEM [1]) read?
**A.** The TC25 was 5.3 µg/mL (≈ 25.1 µM).

**Q.** And the IC50 (CCRF-CEM [2])?
**A.** Its IC50 is 0.05 µg/mL (≈ 0.237 µM).

**Q.** And the TAI (CCRF-CEM [3])?
**A.** Its TAI is >63.

**Q.** And the IC50 (MT2 [4])?
**A.** Its IC50 is 0.44 µg/mL (≈ 2.08 µM).

**Q.** And the TAI (MT2 [5])?
**A.** The TAI was >52.

**Q.** And the TC25 (MT2 [6])?
**A.** The TC25 was >9.8 µg/mL.

**Q.** What about the Selectivity index [7] of the same compound?
**A.** Its Selectivity index is 120.

**Q.** What about the Selectivity index [8] of the same compound?
**A.** The Selectivity index was > 25.

**Q.** For `Nc1nc(O)c2ncn(C3CC[C@@H](CO)S3)c2n1` (some centres not stated), which TC25 (CCRF-CEM [1]) is on record?
**A.** The TC25 was >100 µg/mL.

**Q.** What about the IC50 (MT2 [4]) of the same compound?
**A.** The IC50 was 98 µg/mL (≈ 367 µM).

**Q.** And the TAI (MT2 [5])?
**A.** Its TAI is 11.

**Q.** And the TC25 (MT2 [6])?
**A.** Its TC25 is >200 µg/mL.

**Q.** And the Selectivity index [8]?
**A.** Its Selectivity index is 1.6.

**Q.** Which TC25 (CCRF-CEM [1]) does the source give for `Nc1ccn(C2CC[C@@H](CO)S2)c(=O)n1` (some centres not stated) here?
**A.** The TC25 was >100 µg/mL.

**Q.** And the IC50 (CCRF-CEM [2])?
**A.** The IC50 was 1 µg/mL (≈ 4.4 µM).

**Q.** And the TAI (CCRF-CEM [12])?
**A.** The TAI was >65.

**Q.** What about the IC50 (MT2 [4]) of the same compound?
**A.** The IC50 was 38 µg/mL (≈ 167 µM).

**Q.** And the TC25 (MT2 [6])?
**A.** The TC25 was >100 µg/mL.

**Q.** And the TAI (MT2 [13])?
**A.** The TAI was >23.

**Q.** And the Selectivity index [7]?
**A.** The Selectivity index was > 100.

**Q.** And the Selectivity index [8]?
**A.** The Selectivity index was > 100.

**Q.** Which IC50 (MT2 [4]) does the source give for `Nc1ncnc2c1ncn2C1CC[C@@H](CO)S1` (some centres not stated) here?
**A.** Its IC50 is 80 µg/mL (≈ 318 µM).

**Q.** What about the TAI (MT2 [5]) of the same compound?
**A.** The TAI was >10.

**Q.** And the TC25 (MT2 [6])?
**A.** The TC25 was >100 µg/mL.

**Q.** What about the Selectivity index [8] of the same compound?
**A.** The Selectivity index was 1.3.
